Reference: patent US20240368092A1, “2,4-Dihydro-3H-1,2,4-Triazol-3-One P2X7 Antagonists” (Breye Therapeutics ApS, priority 2021, published 2024)

Legend:
Assay type in all cases: cell-based
[1] = target: T1, human P2X7 channel (Homo sapiens, UniProt Q99572); assay: human P2X7 channel assay by automated patch-clamp (QPatch 16X); conditions: HEK-293 cells expressing P2X7; current evoked by 100 microM BzATP; whole-cell, held at -80 mV; read-out: human Q-Patch (activity range)
T1 construct: expressed in transfected cells; host or cells: HEK-293
T1 sequence (Q99572 1-595): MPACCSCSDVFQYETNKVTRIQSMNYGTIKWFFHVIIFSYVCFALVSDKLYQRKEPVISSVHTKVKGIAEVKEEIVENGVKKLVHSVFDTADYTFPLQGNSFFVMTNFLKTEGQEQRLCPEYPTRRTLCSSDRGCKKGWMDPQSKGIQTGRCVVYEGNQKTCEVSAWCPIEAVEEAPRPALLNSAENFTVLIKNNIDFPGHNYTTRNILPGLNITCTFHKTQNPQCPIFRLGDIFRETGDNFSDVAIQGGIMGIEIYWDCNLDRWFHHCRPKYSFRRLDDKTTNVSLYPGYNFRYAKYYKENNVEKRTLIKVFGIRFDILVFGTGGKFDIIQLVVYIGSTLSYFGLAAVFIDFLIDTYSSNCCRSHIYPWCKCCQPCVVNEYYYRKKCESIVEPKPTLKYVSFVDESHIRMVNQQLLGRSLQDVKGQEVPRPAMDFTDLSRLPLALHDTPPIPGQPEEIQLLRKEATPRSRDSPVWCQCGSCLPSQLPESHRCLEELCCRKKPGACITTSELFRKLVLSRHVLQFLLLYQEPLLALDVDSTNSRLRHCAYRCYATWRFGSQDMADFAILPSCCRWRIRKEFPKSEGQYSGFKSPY
Method: In order to directly monitor the block of P2X7 channel, an electrophysiological assay was developed and implemented on the QPatchl6X automated electrophysiology instrument.
HEK-293 cells expressing the P2X7 channels were cultured in modified EMEM.
72 hours before experiment, 5 million cells were seeded onto T225 flasks. Just before the experiment cells were washed twice, detached from the flask with trypsin-EDTA, re-suspended in the suspension solution and placed on the QPatch 16x.
The compounds (20 mM in a 100% DMSO) stored at −20° C. were prepared the day of the experiment (a first dilution 1:20 in 100% DMSO to prepare a 1 mM stock solution, then a 1 microM solution in external solution+a serial dilution 1:10).
The standard whole-cell voltage clamp experiments were performed at room temperature. From these experiments the multihole technology was used and the data were sampled at 2 KHz.
The intracellular solution contained (mM) 135 CsF, 10 NaCl, 1 EGTA, 10 HEPES, (pH 7.2 with CsOH) whereas the extracellular contained (mM) 145 NaCl, 4 KCl, 0.5 MgCl2, 1 CaCl2, 10 HEPES, 10 Glc (pH 7.4 with NaOH).
After establishment of the seal and the passage in the whole cell configuration, the cells were held at −80 mV. The P2XR7 current was evoked by applying 100 microM of BzATP alone (4 times) and then in the presence increasing concentrations of the compound under investigation (1, 10, 100 and 1000 nM).
The pre-incubation periods 5 to 8 contain increasing concentrations of the compound of interest (1, 10, 100 and 1000 nM), as illustrated in FIGURE (application protocol).
The maximal inward current evoked by BzATP in absence or presence of increasing concentrations of the compounds under investigation was measured and normalized. The potential […] effect was measured as % of control and as IC50 determined fitting the dose-response curves data with the following equation:
Here are reported the potency ranges as A, B, C and D, where A is <10 nM; B is 10 nM-100 nM, C is 0.1-1 μM, D is 1-10 μM.

[2] = target: T2, humanP2X7 (Homo sapiens, UniProt Q99572); assay: P2X7 channel calcium-influx assay (Fluo-8, FLIPR TETRA), human P2X7; conditions: HEK-293 cells stably transfected with P2X7; Bz-ATP at EC80; low divalent cation buffer; read-out: humanP2X7 (activity range)
T2 construct: expressed in transfected cells; host or cells: HEK-293
T2 sequence (Q99572 1-595): T1 sequence (Q99572 1-595)
Method: (§1) Extracellular binding of Bz-ATP to P2X7 receptor opens the channel and allows Ca^2+ influx into the cells. This Ca^2+ entry was measured in HEK-293 cells stably transfected with P2X7 receptor using Screen Quest™ Fluo-8 No Wash Calcium Assay Kit (AAt Bioquest®, cat. 36316). Once inside the cell, the lipophilic blocking groups of Fluo-8 are cleaved by non-specific cell esterases, resulting in a negatively-charged fluorescent dye that stays inside cells. Its fluorescence increases upon binding to calcium. When HEK-293/P2X7 cells are stimulated with Bz-ATP, Ca^2+ enters the cells and the fluorescence of Fluo-8 NW increases. The dye has an absorption spectrum compatible with excitation at 488 nm by argon laser sources and its emission wavelength is in the range of 515-575 nm.
(§2) HEK-293 cells stably transfected with P2X7 receptor were seeded overnight in growth medium at 10,000 to 20,000 cells/well in 384-well plate. 24 hours later, the medium was removed, and the cells were pre-loaded at RT for 1 hour with 20 μL/w of Fluo-8 NW. Then 10 μL/w of test compounds and reference antagonist A438079 at 3×-concentration were injected with the FLIPRTETRA and the kinetic response over a period of five minutes was monitored. A second injection of 15 μL/w of 3× reference activator (Bz-ATP at EC80) was performed with the FLIPR TETRA and the signal of the emitted fluorescence was recorded for additional three minutes. All the experiment was carried out in a Low Divalent Cation Assay Buffer (0.3 mM Ca^2+ and 0 mM Mg^2+). The effect of the test compounds was measured as percent inhibition vs the reference antagonist and IC50 values were calculated accordingly. Here are reported the potency ranges as A, B, C and D, where A is <200 nM; B is 200 nM-1 μM, C is 1-10 μM, D is 10-30 μM.

[3] = target: T3, mouseP2X7 (Mus musculus, UniProt Q9Z1M0); assay: P2X7 channel calcium-influx assay (Fluo-8, FLIPR TETRA), mouse P2X7; conditions: HEK-293 cells stably transfected with P2X7; Bz-ATP at EC80; low divalent cation buffer; read-out: mouseP2X7 (activity range)
T3 construct: expressed in transfected cells; host or cells: HEK-293
T3 sequence (Q9Z1M0 1-595): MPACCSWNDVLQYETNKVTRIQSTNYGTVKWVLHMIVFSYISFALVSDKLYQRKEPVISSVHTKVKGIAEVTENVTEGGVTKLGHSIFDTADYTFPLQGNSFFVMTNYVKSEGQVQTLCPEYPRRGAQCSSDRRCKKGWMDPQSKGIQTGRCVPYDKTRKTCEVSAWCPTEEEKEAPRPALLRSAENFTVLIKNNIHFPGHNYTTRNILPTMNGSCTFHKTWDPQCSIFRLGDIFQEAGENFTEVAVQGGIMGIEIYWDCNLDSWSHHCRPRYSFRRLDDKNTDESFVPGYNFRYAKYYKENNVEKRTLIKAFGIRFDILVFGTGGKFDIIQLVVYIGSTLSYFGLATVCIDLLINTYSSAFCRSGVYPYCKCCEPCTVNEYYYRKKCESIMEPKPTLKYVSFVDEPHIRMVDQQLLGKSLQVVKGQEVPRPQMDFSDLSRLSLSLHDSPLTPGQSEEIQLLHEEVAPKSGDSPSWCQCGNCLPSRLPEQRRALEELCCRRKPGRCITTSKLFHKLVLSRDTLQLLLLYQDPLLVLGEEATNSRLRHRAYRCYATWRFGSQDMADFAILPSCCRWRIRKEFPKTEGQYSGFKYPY
Method: as §1, §2

[4] = target: T4, ratP2X7 (Rattus norvegicus, UniProt Q64663); assay: P2X7 channel calcium-influx assay (Fluo-8, FLIPR TETRA), rat P2X7; conditions: HEK-293 cells stably transfected with P2X7; Bz-ATP at EC80; low divalent cation buffer; read-out: ratP2X7 (activity range)
T4 construct: expressed in transfected cells; host or cells: HEK-293
T4 sequence (Q64663 1-595): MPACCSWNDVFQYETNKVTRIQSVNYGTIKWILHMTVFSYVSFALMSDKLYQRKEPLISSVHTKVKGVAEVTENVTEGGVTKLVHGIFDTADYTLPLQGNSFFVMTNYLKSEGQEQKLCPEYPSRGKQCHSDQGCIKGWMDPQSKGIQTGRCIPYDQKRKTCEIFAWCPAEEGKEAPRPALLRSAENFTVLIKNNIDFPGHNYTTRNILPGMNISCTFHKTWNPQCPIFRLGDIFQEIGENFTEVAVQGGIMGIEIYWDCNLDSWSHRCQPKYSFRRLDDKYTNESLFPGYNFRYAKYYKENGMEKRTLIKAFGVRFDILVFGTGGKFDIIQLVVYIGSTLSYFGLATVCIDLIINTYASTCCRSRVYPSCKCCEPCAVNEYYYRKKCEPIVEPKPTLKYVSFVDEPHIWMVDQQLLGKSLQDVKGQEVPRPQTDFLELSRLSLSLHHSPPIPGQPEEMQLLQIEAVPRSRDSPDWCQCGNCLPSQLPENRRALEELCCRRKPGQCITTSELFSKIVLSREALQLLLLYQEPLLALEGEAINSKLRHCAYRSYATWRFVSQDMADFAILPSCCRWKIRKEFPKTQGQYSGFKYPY
Method: as §1, §2

Row | IC50 [1] [nM] | IC50 [2] [nM] | IC50 [3] [nM] | IC50 [4] [nM] | Compound
1 | 1000 to 10000 | 10000 to 30000 | 10000 to 30000 | 10000 to 30000 | Cn1nc(Cc2c(F)cccc2Cl)n(CCN2CCOCC2)c1=O [Example 22, 5-(2-chloro-6-fluorobenzyl)-2-methyl-4-(2-morpholinoethyl)-2,4-dihydro-3H-1,2,4-triazol-3-one]
2 | 1000 to 10000 | 200 to 1000 | 200 to 1000 | < 200 | Cn1nc(Cc2ccccc2C(F)(F)F)n(CC2CCCCC2(C)C)c1=O (stereo not shown) [Example 23, 4-((2,2-dimethylcyclohexyl)methyl)-2-methyl-5-(2-(trifluoromethyl)benzyl)-2,4-dihydro-3H-1,2,4-triazol-3-one]
3 | 100 to 1000 | 200 to 1000 | 1000 to 10000 | < 200 | Cn1nc(CC2CCCCC2)n(Cc2c(F)cccc2Cl)c1=O [Example 24, 4-(2-chloro-6-fluorobenzyl)-5-(cyclohexylmethyl)-2-methyl-2,4-dihydro-3H-1,2,4-triazol-3-one]
4 | 100 to 1000 | 1000 to 10000 | 10000 to 30000 | 1000 to 10000 | Cn1nc(CC2CCCCC2)n(Cc2ccccc2C(F)(F)F)c1=O [Example 25, 5-(cyclohexylmethyl)-2-methyl-4-(2-(trifluoromethyl)benzyl)-2,4-dihydro-3H-1,2,4-triazol-3-one]
5 | 100 to 1000 | 200 to 1000 | 1000 to 10000 | < 200 | Cn1nc(Cc2ccccc2F)n(CC2CCC(F)(F)CC2)c1=O [Example 26, 4-((4,4-difluorocyclohexyl)methyl)-5-(2-fluorobenzyl)-2-methyl-2,4-dihydro-3H-1,2,4-triazol-3-one]
6 | 1000 to 10000 | 1000 to 10000 | 1000 to 10000 | < 200 | Cn1nc(Cc2ccccc2F)n(CC2CCCCC2)c1=O [Example 27, 4-(cyclohexylmethyl)-5-(2-fluorobenzyl)-2-methyl-2,4-dihydro-3H-1,2,4-triazol-3-one]
7 | 1000 to 10000 | 10000 to 30000 | 10000 to 30000 | 10000 to 30000 | Cn1nc(Cc2ccc(F)cc2)n(Cc2cc(-c3ncc(F)cn3)ccc2Cl)c1=O [Example 29, 4-(2-chloro-5-(5-fluoropyrimidin-2-yl)benzyl)-5-(4-fluorobenzyl)-2-methyl-2,4-dihydro-3H-1,2,4-triazol-3-one]
8 | 1000 to 10000 | 1000 to 10000 | 10000 to 30000 | 1000 to 10000 | Cn1nc(Cc2c(F)cccc2Cl)n(CCN2CCOCC2(C)C)c1=O [Example 30, 5-(2-chloro-6-fluorobenzyl)-4-(2-(3,3-dimethylmorpholino)ethyl)-2-methyl-2,4-dihydro-3H-1,2,4-triazol-3-one]
9 | 100 to 1000 | 1000 to 10000 | 10000 to 30000 | 1000 to 10000 | Cc1ncccc1Cn1c(CC2CCCCC2)nn(C)c1=O [Example 31, 5-(cyclohexylmethyl)-2-methyl-4-((2-methylpyridin-3-yl)methyl)-2,4-dihydro-3H-1,2,4-triazol-3-one]
10 | 1000 to 10000 | 1000 to 10000 | 1000 to 10000 | < 200 | Cn1nc(Cc2ccccc2F)n(CC2CCCCC2(C)C)c1=O (stereo not shown) [Example 32, 4-((2,2-dimethylcyclohexyl)methyl)-5-(2-fluorobenzyl)-2-methyl-2,4-dihydro-3H-1,2,4-triazol-3-one]
11 | 10 to 100 | < 200 | 200 to 1000 | < 200 | Cn1nc(Cc2c(F)cccc2Cl)n(CC2CCCCC2(C)C)c1=O (stereo not shown) [Example 33, 5-(2-chloro-6-fluorobenzyl)-4-((2,2-dimethylcyclohexyl)methyl)-2-methyl-2,4-dihydro-3H-1,2,4-triazol-3-one]
12 | 10 to 100 | < 200 | < 200 | < 200 | CCn1nc(Cc2c(F)cccc2Cl)n(CC2CCC(F)(F)CC2)c1=O [Example 34, 5-(2-chloro-6-fluorobenzyl)-4-((4,4-difluorocyclohexyl)methyl)-2-ethyl-2,4-dihydro-3H-1,2,4-triazol-3-one]

Row | Compound | IC50 [1] [nM] | IC50 [2] [nM] | IC50 [3] [nM] | IC50 [4] [nM]
13 | Cn1nc(Cc2ccccc2C(F)(F)F)n(CC2CCCCCC2)c1=O [Example 28, 4-(cycloheptylmethyl)-2-methyl-5-(2-(trifluoromethyl)benzyl)-2,4-dihydro-3H-1,2,4-triazol-3-one] | 100 to 1000 | 200 to 1000 | 1000 to 10000 | < 200
